Patent US20260191849A1, “PHARMACEUTICAL COMPOSITION FOR TREATMENT OF CANCER” (WIGEN BIOMEDICINE TECHNOLOGY (SHANGHAI) CO., LTD., priority 2022, published 2026)

Assays:
[1] = tested on: HT29 subcutaneous xenograft tumors; experiment: In vivo pharmacodynamic study, HT29 subcutaneous xenograft tumor model of mice (Biological Example 3); set-up: species or system BALB/c nude mice; settings: for TGI / Tumor volume on day 1 of administration / Tumor volume on day 28 of administration: 80 mg/kg intragastric once daily; for TGI / Tumor volume on day 28 of administration: day 28; for Tumor volume on day 1 of administration: day 1 (baseline); for inhibitory effects on the HT29 subcutaneous xenograft tumor in mice compared with AMG650: 80 mg/kg, in words
Method: BALB/c nude mice were each inoculated subcutaneously with 5×10^6 HT29 cells on the left dorsal side. After the tumors grew to 100-150 mm^3, the mice were randomly divided into the following groups for intragastric administration once daily: group 1: vehicle control group; group 2: compound 661 (80 mg/kg); group 3: compound 669 (80 mg/kg); group 4: compound 677 (80 mg/kg); group 5: compound 714 (80 mg/kg); group 6: compound 727 (80 mg/kg); group 7: compound 740 (80 mg/kg); and group 8: AMG65 (80 mg/kg). The tumor volume was measured twice weekly and at the end of administration. […].

[2] = tested on: Histone H3 Ser10 site in HT29 cells; experiment: Phosphorylation assay of histone H3 Ser10 site in HT29 cells, immunofluorescence (Biological Example 4); assay type: cell-based; settings: Homo sapiens, HT-29, 6 h, FITC/DAPI
Method: HT29 cells were seeded in a 96-well plate (Fisher 160376) at 8000 cells/well. The next day, the serially diluted compounds were added. Six hours after the addition of the compounds, the cells were washed once with 1×PBS, immobilized with 4% PFA for 15 min, further washed three times with 1×PBS, and permeabilized with 0.02% Triton-X100 for 10 min. Then, blocking was performed for 15-30 min using a blocking buffer. After a primary antibody (Phospho-Histone H3 (Ser10)) at a 1:3000 dilution was added, the well plate was left to stand at 4° C. overnight. The next day, the cells were washed three times with 1×PBS, and then a secondary antibody (Fluorescein (FITC)-conjugated Affinipure Goat Anti-Rabbit IgG (H+L)) at a 1:1000 dilution was added. The cells were incubated in the dark for 1-2 h and then washed three times with 1×PBS. Subsequently, the cell nuclei were stained using DAPI. The ratio of phosphorylation (FITC/DAPI) at H3 Ser10 site in HT29 cells was quantified. The effects of the compounds on Phospho-Histone H3 were evaluated, and EC50 values of the compounds were calculated.

[3] = tested on: HT29 subcutaneous xenograft tumors; experiment: In vivo pharmacodynamic study of combination therapy, HT29 subcutaneous xenograft tumor model of mice (Biological Example 14); set-up: species or system BALB/c nude mice
Excerpt: BALB/c nude mice were each inoculated subcutaneously with 5×10^6 HT29 cells on the left dorsal side. After the tumors grew to 100-150 mm^3, the mice were randomly divided into the following groups for intragastric administration once daily for 14 consecutive days: group 1: vehicle control group; group 2: AMG650 (50 mpk, PO, QD); group 3: compound 714 (50 mpk, PO, QD); group 4: AMG650 (50 mpk, PO, QD)+Onvasertib (20 mpk, PO, QD); group 5: compound 714 (50 mpk, PO, QD)+Onvasertib (20 mpk, PO, QD); and group 6: Onvasertib (20 mpk, PO, QD). The administration to all the groups was stopped on day 15, and the tumor growth continued to be observed until day 21. The tumor volume was measured twice weekly and at the end of administration. […]

[4] = PO QD 14 days, AMG650/714 50 mpk, Onvasertib 20 mpk, day 15
[5] = PO QD 14 days, AMG650/714 50 mpk, Onvasertib 20 mpk, day 21, after stop of administration

| SMILES | TGI [1] | Tumor volume on day 1 of administration [1] | Tumor volume on day 28 of administration [1] | inhibitory effects on the HT29 subcutaneous xenograft tumor in mice compared with AMG650 [1] | other results |
| --- | --- | --- | --- | --- | --- |
| COc1ccc(NC(=O)c2ccc(NS(=O)(=O)CCOC(C)=O)cc2N2CCC3(CC2)CC3)nc1N1CCC(F)(F)CC1 [Compound 661] | 61% | – | – | – | – |
| COc1ccc(C(=O)Nc2ccc(NS(=O)(=O)CCOC(C)=O)cc2N2CCC3(CC2)CC3)nc1N1CCC(F)(F)CC1 [Compound 669] | 30% | – | – | – | – |
| COc1ccc(NC(=O)c2ccc(S(=O)(=O)NCCOC(C)=O)cc2N2CCC3(CC2)CC3)nc1N1CCC(F)(F)CC1 [Compound 677] | 55% | – | – | – | – |
| COc1ccc(NC(=O)c2ccc(NS(=O)(=O)CCOC(=O)[C@@H](N)C(C)C)cc2N2CCC3(CC2)CC3)nc1N1CCC(F)(F)CC1 [Compound 714] | 80% | 121 mm^3 | 424 mm^3 | stronger inhibitory effects | EC50 [2]: 39.2 nM; Tumor volume on day 1 of administration ([3]; PO QD 14 days, AMG650/714 50 mpk, Onvasertib 20 mpk, day 1 (baseline)): 134 mm^3; TGI on day 15 [3, 4]: 121%; Tumor volume on day 15 of administration [3, 4]: 17 mm^3; TGI on day 21 [3, 5]: 110%; Tumor volume on day 21 of administration [3, 5]: 49 mm^3; tumor inhibitory effect, combined use with the PLK1 inhibitor Onvasertib compared with monotherapy ([3]; combined with Onvasertib, in words): stronger tumor inhibitory effect; therapeutic efficacy of monotherapy in HT29-bearing mice ([3]; monotherapy, in words): able to inhibit tumor growth |
| COc1ccc(C(=O)Nc2ccc(NS(=O)(=O)CCOC(=O)[C@@H](N)C(C)C)cc2N2CCC3(CC2)CC3)nc1N1CCC(F)(F)CC1 [Compound 727] | 73% | 121 mm^3 | 519 mm^3 | stronger inhibitory effects | – |
| COc1ccc(NC(=O)c2ccc(S(=O)(=O)NCCOC(=O)[C@@H](N)C(C)C)cc2N2CCC3(CC2)CC3)nc1N1CCC(F)(F)CC1 [Compound 740] | 67% | 121 mm^3 | 605 mm^3 | stronger inhibitory effects | – |
